A word on the IC50: it is the concentration at which inhibition is half-maximal. As usually defined, the EC50 is the concentration needed to bring the measured effect to its halfway point.

This passage reports IC50, EC50 and CC50 results from US11952365B2, “Anti-viral compounds” (Aligos Therapeutics, Inc., priority 2020, dated 2024).

Read-outs that look alike come from different tables or passages of the source.

One data set concerns the target HRV3C (Human rhinovirus 14, UniProt P03303). Briefly: HRV3C protease assay (duplex, SAMDI-MS). Type of data set: biochemical, HRV. To be noted: HRV3C, 30 mins preincubation, read-out: HRV IC50. Put shortly:
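HRV3C was preincubated 30 min with compound alongside 3CLpro at ambient temperature, then two biotinylated peptide substrates were added for 30 min. Quenching used 0.5% formic acid (final). Cleaved product was captured on neutravidin SAMDI arrays and quantified by MALDI-TOF as product/internal-standard AUC ratio; IC50 from four-parameter fit.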

Data set [1] concerns human beta-coronavirus OC43. Briefly: microbe, parasite or virus in culture. Type of data set: cell-based. To be noted: Betacoronavirus 1, OC43, HeLa, 144 h, OC43 in HeLa cells, 6 days at 33° C., read-out: EC50.
Data set [2] is described as follows: Cytotoxicity plates without OC43 virus (cell-titer-glo). To be noted: human; HeLa cells without OC43 virus, class symbols. The format is cell-based, human. Put shortly:
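Run as a virus-free counterpart of the OC43 cytopathic-effect assay. Attached HeLa cells received compound dilutions in EMEM with 2% FBS and were kept 6 days at 33 °C. Cell viability was then measured by CellTiter-Glo luminescence.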

Data set [3] concerns SARS-CoV-2-GHB-03021/2020. Briefly: SARS-CoV-2 Infection Model in Huh7 Cells. The format is cell-based. To be noted: Severe acute respiratory syndrome coronavirus 2, Huh-7, 96 h, SARS-CoV-2, day 4 p.i., MTS.
The subject of data set [4] is SARS-CoV-2-GHB-03021/2020. The data set can be described thus: microbe, parasite or virus in culture. The format is cell-based. To be noted: Severe acute respiratory syndrome coronavirus 2, Vero C1008, 96 h; read-out: VeroE6 + CP (EC50).
The next data set addresses T1, human cathepsin L (Homo sapiens, UniProt P07711).
T1 construct: purchased R&D Systems
Briefly: cathepsin L assay. Type of data set: biochemical. The following applies: 10 pM human cathepsin L, Z-FR-AMC 2 μM, class symbols. Put shortly:
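Reactions began by adding 2 μM (final) Z-FR-AMC substrate to 10 pM human cathepsin L that had been preincubated 30 min with inhibitor. Kinetic AMC fluorescence at 355/460 nm over 30 min at 2-min intervals; four-parameter fitting gave IC50 values.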

Data set [5] is described as follows: in vitro. To be noted: human.
The nature of data set [6]: in vitro. The following applies: African green monkey, VeroE6 + CP (CC50), Vero E6-eGFP cells with CP-100356, absence of virus, MTS.
The next data set concerns the target 3CLpro (Severe acute respiratory syndrome coronavirus 2, UniProt P0DTD1). The data set can be described thus: SARS-CoV-2 3CLpro protease assay (duplex, SAMDI-MS). Type of data set: biochemical. On the set-up: For the duplex assay, 3CLpro and HRV3C was added. To be noted: 3CLpro, 30 mins preincubation, class symbols; read-out: SARS-Cov-2 IC50.

`COc1cccc2[nH]c(C(=O)N3C[C@@H]4CCC[C@@H]4[C@H]3C(=O)N[C@@H](CN3CCCNC3=O)C(=O)C(=O)NC3CC3)cc12` [Compound 118]: the figures for the IC50 on HRV3C (bound), against human cathepsin L and on 3CLpro were above 10 µM, at least 10 µM and 2 to 20 µM, respectively. Further, the half-maximal effective concentration (EC50) in [1] (bound) is above 10 µM; in [3] (numeric bounds) it was above 50 µM; in [4] it was above 50 µM. In [2], this compound showed a CC50 at 6 days above 10 µM. Also, the CC50 was above 10 µM in “in vitro [5]” and above 50 µM in the data set “in vitro [6]” (numeric bounds).
For `COc1cccc2[nH]c(C(=O)N3C[C@@H]4CCC[C@@H]4[C@H]3C(=O)N[C@H](CN3CCCC3=O)C(=O)C(=O)NC3CC3)cc12` (single isomer, unassigned) [Compound 113B], the IC50 was 2 to 20 µM at HRV3C (class symbols), at least 10 µM against human cathepsin L and 2 to 20 µM at 3CLpro. Moreover, the EC50 in data set [1] (class symbols) was 1 to 10 µM; in data set [3] (numeric bounds), above 50 µM; in [4] it was 10 to 100 µM. In addition, the CC50 at 6 days in data set [2] is above 10 µM. Also, the CC50 in the data set “in vitro [5]” and in the data set “in vitro [6]” (numeric bounds) was above 50 µM in each case.
On to `COc1cccc2[nH]c(C(=O)N3C[C@]4(C[C@H]3C(=O)N[C@@H](C[C@@H]3CCCNC3=O)C(=O)C(=O)NC(C)C)CC4(F)F)cc12` [Compound 34], for which the figures for the half-inhibitory concentration (IC50) at HRV3C (class symbols), on human cathepsin L and at 3CLpro were 0.2 to 2 µM, at least 10 µM and 0.02 to 0.2 µM, respectively. Besides, the EC50 is 0.1 to 1 µM in data set [1] (class symbols), 10 to 100 µM in data set [3] (class symbols) and 1 to 10 µM in data set [4]. Moreover, in [2], the CC50 at 6 days was above 10 µM. For the same compound, the CC50 in the data set “in vitro [5]” and in “in vitro [6]” (numeric bounds) was above 100 µM each time.
For `COc1cccc2[nH]c(C(=O)N3C[C@H](C(F)(F)F)C[C@H]3C(=O)N[C@@H](C[C@@H]3CCCNC3=O)C(=O)CO)cc12` [Compound 45], the results for the 50% inhibitory concentration (IC50) on HRV3C (class symbols), against human cathepsin L and at 3CLpro were 2 to 20 µM, at least 10 µM and 0.02 to 0.2 µM, respectively. Further, the 50% effective concentration (EC50) in data set [1] (class symbols) is 0.1 to 1 µM; in data set [3] (class symbols) it was 1 to 10 µM; in data set [4], below 1 µM. This compound also displayed a CC50 at 6 days in data set [2] above 10 µM. In addition, the CC50 in “in vitro [5]” and in the data set “in vitro [6]” (numeric bounds) was above 100 µM throughout.
With `CNc1cccc2[nH]c(C(=O)N3C[C@@H]4CCC[C@@H]4[C@H]3C(=O)N[C@@H](C[C@@H]3CCNC3=O)C(=O)CO)cc12` [Compound 153, (1S,3aR,6aS)—N-[(2S)-4-hydroxy-3-oxo-1-[(3S)-2-oxopyrrolidin-3-yl]butan-2-yl]-2-[4-(methylamino)-1H-indole-2-carbonyl]-hexahydro-1H-cyclopenta[c]pyrrole-1-carboxamide], the figures for the concentration for half-maximal inhibition (IC50) on HRV3C (bound), against human cathepsin L and at 3CLpro were above 10 µM, at least 10 µM and 0.02 to 0.2 µM, respectively. Further, the EC50 fell in the range of 1 to 10 µM in data set [1] (class symbols), 10 to 100 µM in [3] (class symbols) and 10 to 100 µM in data set [4]. The compound also displayed a CC50 at 6 days in data set [2] above 10 µM. The CC50 is above 10 µM in “in vitro [5]” and above 50 µM in the data set “in vitro [6]” (numeric bounds).
Take `COc1cccc2[nH]c(C(=O)N3C[C@]4(C[C@H]3C(=O)N[C@@H](C[C@@H]3CCNC3=O)C(=O)CO)CC4(F)F)cc12` [Compound 39]: the figures for the half-maximal inhibitory concentration (IC50) on HRV3C (bound), against human cathepsin L and at 3CLpro were above 10 µM, at least 10 µM and 0.02 to 0.2 µM, respectively. For the same compound, the half-maximal effective concentration (EC50) lay in the range of 0.1 to 1 µM in [1] (class symbols), 1 to 10 µM in data set [3] (class symbols) and 1 to 10 µM in [4]. The CC50 at 6 days in data set [2] was above 10 µM. Besides, the CC50 in “in vitro [5]” and in “in vitro [6]” (numeric bounds) was above 100 µM each time.
Consider `COc1cccc2[nH]c(C(=O)N3CC4(CC4)C[C@H]3C(=O)N[C@@H](C[C@@H]3CCNC3=O)C(=O)CO)cc12` [Compound 31, (6S)—N-[(2S)-4-hydroxy-3-oxo-1-[(3S)-2-oxopyrrolidin-3-yl]butan-2-yl]-5-(4-methoxy-1H-indole-2-carbonyl)-5-azaspiro[2.4]heptane-6-carboxamide], for which the IC50 is 20 to 100 µM at HRV3C (class symbols), at least 10 µM on human cathepsin L and below 0.02 µM at 3CLpro. For the same compound, the concentration giving a half-maximal response (EC50) in data set [1] (class symbols) was 0.1 to 1 µM; in [3] (class symbols) it was 10 to 100 µM; in data set [4], 1 to 10 µM. In addition, the CC50 at 6 days in [2] was above 10 µM. In addition, the CC50 in the data set “in vitro [5]” and in “in vitro [6]” (numeric bounds) was above 100 µM throughout.
Regarding `O=C1NCC[C@H]1C[C@H](NC(=O)[C@@H]1[C@H]2CCC[C@H]2CN1C(=O)c1cc2c(Cl)cccc2[nH]1)C(=O)CO` [Compound 60, (1S,3aR,6aS)-2-(4-chloro-1H-indole-2-carbonyl)-N-[(2S)-4-hydroxy-3-oxo-1-[(3S)-2-oxopyrrolidin-3-yl]butan-2-yl]-hexahydro-1H-cyclopenta[c]pyrrole-1-carboxamide], the IC50 is above 10 µM on HRV3C (bound), at least 10 µM against human cathepsin L and below 0.02 µM at 3CLpro. The EC50 in data set [1] (class symbols) was below 0.1 µM; in data set [3] (class symbols) it was below 1 µM; in data set [4], below 1 µM. The compound further had a CC50 at 6 days in data set [2] above 10 µM. In addition, the CC50 in the data set “in vitro [5]” is above 100 µM; in the data set “in vitro [6]” (class symbols) it was above 10 µM.
In the case of `COc1cccc2[nH]c(C(=O)N3C[C@@H]4CCC[C@@H]4[C@H]3C(=O)NC(C[C@@H]3CCNC3=O)C(=O)C(C)O)cc12` (stereo partly drawn) [Compound 62, (1S,3aR,6aS)—N-(4-hydroxy-3-oxo-1-((S)-2-oxopyrrolidin-3-yl)pentan-2-yl)-2-(4-methoxy-1H-indole-2-carbonyl)octahydrocyclopenta[c]pyrrole-1-carboxamide], the 50% inhibitory concentration (IC50) is above 10 µM at HRV3C (bound), at least 10 µM against human cathepsin L and 0.2 to 2 µM on 3CLpro. The 50% effective concentration (EC50) in [1] (class symbols) lay within 1 to 10 µM; in [3] (class symbols), 10 to 100 µM; in [4], 10 to 100 µM. In data set [2], the CC50 at 6 days was above 10 µM. The CC50 is above 100 µM in “in vitro [5]” and above 10 µM in the data set “in vitro [6]” (class symbols).
As for `O=C1NCC[C@H]1C[C@H](NC(=O)[C@@H]1[C@H]2CCC[C@H]2CN1C(=O)c1cc2c(Cl)ccc(-c3ccccc3)c2[nH]1)C(=O)CO` [Compound 168, (1S,3aR,6aS)-2-(4-chloro-7-phenyl-1H-indole-2-carbonyl)-N-[(2S)-4-hydroxy-3-oxo-1-[(3S)-2-oxopyrrolidin-3-yl]butan-2-yl]-hexahydro-1H-cyclopenta[c]pyrrole-1-carboxamide], the results for the IC50 at HRV3C (bound), at human cathepsin L and at 3CLpro were above 10 µM, at least 10 µM and 0.2 to 2 µM, respectively. In addition, the EC50 in [1] (class symbols), in data set [3] (class symbols) and in data set [4] was 1 to 10 µM in each case. This compound also displayed a CC50 at 6 days in [2] above 10 µM. Further, the CC50 in “in vitro [5]” was above 10 µM; in the data set “in vitro [6]” (numeric bounds), above 50 µM.
For the compound `O=C1NCC[C@H]1C[C@H](NC(=O)[C@@H]1[C@H]2CCC[C@H]2CN1C(=O)c1cc2c(Cl)cc(C(F)(F)F)cc2[nH]1)C(=O)CO` [Compound 161, (1S,3aR,6aS)-2-[4-chloro-6-(trifluoromethyl)-1H-indole-2-carbonyl]-N-[(2S)-4-hydroxy-3-oxo-1-[(3S)-2-oxopyrrolidin-3-yl]butan-2-yl]-hexahydro-1H-cyclopenta[c]pyrrole-1-carboxamide], the IC50 was above 10 µM on HRV3C (bound), at least 10 µM against human cathepsin L and 0.02 to 0.2 µM at 3CLpro. Moreover, the values for the EC50 in data set [1] (class symbols), in data set [3] (class symbols) and in data set [4] were below 0.1 µM, below 1 µM and 1 to 10 µM, respectively. This compound also gave a CC50 at 6 days in data set [2] above 10 µM. Besides, the CC50 in “in vitro [5]” was above 10 µM; in “in vitro [6]” (numeric bounds) it was above 50 µM.
Turning to `O=C1NCC[C@H]1C[C@H](NC(=O)[C@@H]1[C@H]2CCC[C@H]2CN1C(=O)c1cc2c(Cl)cc(Cl)cc2[nH]1)C(=O)CO` [Compound 91, (1S,3aR,6aS)-2-(4,6-dichloro-1H-indole-2-carbonyl)-N-[(2S)-4-hydroxy-3-oxo-1-[(3S)-2-oxopyrrolidin-3-yl]butan-2-yl]-hexahydro-1H-cyclopenta[c]pyrrole-1-carboxamide], the values for the concentration for half-maximal inhibition (IC50) on HRV3C (class symbols), against human cathepsin L and on 3CLpro were 2 to 20 µM, at least 10 µM and below 0.02 µM, respectively. Besides, the concentration giving a half-maximal response (EC50) in data set [1] (class symbols) is below 0.1 µM; in [3] (class symbols), below 1 µM; in data set [4], below 1 µM. In data set [2], the CC50 at 6 days was above 10 µM. For the same compound, the CC50 in “in vitro [5]” and in the data set “in vitro [6]” (class symbols) was above 10 µM throughout.
